{"source": "paper PMC7155212", "about": "(Journal of Enzyme Inhibition and Medicinal Chemistry, 2020)", "key": {"MAO-B": {"target": "T1, MAO-B (Rattus norvegicus, UniProt P19643)", "T1 construct": "The crude enzyme was extracted from the liver of 200–250 g of Wistar rats; from tissue; host or cells: liver of Wistar rats (crude enzyme)", "T1 sequence (P19643 1-520)": "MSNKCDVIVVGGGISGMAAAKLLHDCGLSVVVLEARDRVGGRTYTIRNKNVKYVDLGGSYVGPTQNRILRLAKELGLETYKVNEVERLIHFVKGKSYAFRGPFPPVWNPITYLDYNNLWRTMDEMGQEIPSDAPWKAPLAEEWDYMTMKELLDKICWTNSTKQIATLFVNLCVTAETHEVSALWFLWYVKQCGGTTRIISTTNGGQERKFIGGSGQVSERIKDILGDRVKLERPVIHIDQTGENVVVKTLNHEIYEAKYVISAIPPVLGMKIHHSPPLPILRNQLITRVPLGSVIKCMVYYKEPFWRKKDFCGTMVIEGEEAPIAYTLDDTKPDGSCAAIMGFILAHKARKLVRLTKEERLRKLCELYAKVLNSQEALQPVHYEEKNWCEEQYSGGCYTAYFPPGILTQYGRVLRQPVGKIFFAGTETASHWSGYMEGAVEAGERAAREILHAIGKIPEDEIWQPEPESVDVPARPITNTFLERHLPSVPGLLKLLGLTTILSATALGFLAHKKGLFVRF", "assay": "In vitro MAO inhibitory activity (Holt method, crude enzyme from rat liver)", "assay_type": "biochemical, Wistar rat", "conditions": "rat liver crude enzyme, 4-(trifluoromethyl)benzylamine substrate, mean ± SD (n = 3); read-out: IC50 value MAO-B inhibitory activity", "protocol": "The MAO inhibitory activity of the 3-arylbenzofuranone compounds was determined by the method of Holt et al.[17] with slight modifications. The crude enzyme was extracted from the liver of 200–250 g of Wistar rats according to literature methods[18]^,[19]. The crude enzyme protein content was determined by the Bradford method using a Bradford Protein Assay Kit (Beyotime). The assay was performed in 0.2 M potassium phosphate buffer pH 7.6 on 96-well plates in 240 μl total volume. The chromogenic solution containing 1 mM vanillic acid, 0.5 mM 4-aminoantipyrine, and 4 U/ml horseradish peroxidase in 0.2 M potassium phosphate buffer pH 7.6 was mixed anew for each measurement. 40 μL of enzyme solution and 40 μL of sample solution were added to a 96-well plate. The solution was then incubated at 37 °C for 20 min. 120 μL of the 4-(trifluoromethyl) benzylamine solution and 40 μL of the chromogenic solution were added subsequently and incubated at 37 °C for 90 min. The absorbance was measured at 490 nm using a microplate reader, and the inhibition rate of MAO and the IC50 value of each sample were calculated according to the formula. The control group replaced the sample solution with PBS (0.2 M, pH = 7.6), the positive control replaced the sample with the positive drug, and the blank group replaced the substrate with PBS, and each group was measured three times in parallel to average. Monoamine oxidase inhibitory effect (%) = [(AC – AB) – (AS – ASB )]/(AC – AB)×100% where AC is the absorbance of control group; AB is the absorbance of blank group; AS is the absorbance of sample group; ASB is the absorbance of sample blank group."}, "BuChE": {"target": "BuChE (Equus caballus, UniProt P81908)", "sequence (P81908 whole entry)": "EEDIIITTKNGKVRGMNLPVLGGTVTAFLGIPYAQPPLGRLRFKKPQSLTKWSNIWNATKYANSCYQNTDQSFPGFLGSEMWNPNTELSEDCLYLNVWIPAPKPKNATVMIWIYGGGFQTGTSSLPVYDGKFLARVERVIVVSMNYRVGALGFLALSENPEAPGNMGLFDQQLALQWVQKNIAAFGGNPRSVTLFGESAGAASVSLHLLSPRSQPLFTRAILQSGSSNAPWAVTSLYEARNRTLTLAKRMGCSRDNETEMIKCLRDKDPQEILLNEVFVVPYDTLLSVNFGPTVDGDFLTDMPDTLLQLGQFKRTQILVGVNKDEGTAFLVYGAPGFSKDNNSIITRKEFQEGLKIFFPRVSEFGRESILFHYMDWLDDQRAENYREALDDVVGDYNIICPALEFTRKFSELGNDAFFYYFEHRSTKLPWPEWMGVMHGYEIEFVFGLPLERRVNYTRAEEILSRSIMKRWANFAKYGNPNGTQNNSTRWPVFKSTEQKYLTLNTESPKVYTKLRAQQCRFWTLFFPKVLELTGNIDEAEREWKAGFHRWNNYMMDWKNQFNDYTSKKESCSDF", "assay": "Kinetic characterisation of BuChE inhibition (Lineweaver-Burk)", "assay_type": "biochemical", "conditions": "Lineweaver-Burk plot, Figure 1B", "protocol": "(§1) To obtain the mechanism of action of 13, reciprocal plots of 1/velocity versus 1/[substrate] were constructed at different concentrations of the substrate […] by using Ellman’s method. Compound 13 was added to the assay solution and preincubated with the enzyme at 37 °C for 5 min, followed by the addition of the substrate. Kinetic characterisation catalysed by enzyme was achieved spectrometrically at 412 nm. A parallel control experiment was carried out without compound 13 in the mixture. Lineweaver–Burk plot was made based on the reaction rate and substrate concentration to determine the type of inhibition of the ChE by the compound."}, "AChE": {"target": "AChE (Electrophorus electricus, UniProt O42275)", "sequence (O42275 24-633)": "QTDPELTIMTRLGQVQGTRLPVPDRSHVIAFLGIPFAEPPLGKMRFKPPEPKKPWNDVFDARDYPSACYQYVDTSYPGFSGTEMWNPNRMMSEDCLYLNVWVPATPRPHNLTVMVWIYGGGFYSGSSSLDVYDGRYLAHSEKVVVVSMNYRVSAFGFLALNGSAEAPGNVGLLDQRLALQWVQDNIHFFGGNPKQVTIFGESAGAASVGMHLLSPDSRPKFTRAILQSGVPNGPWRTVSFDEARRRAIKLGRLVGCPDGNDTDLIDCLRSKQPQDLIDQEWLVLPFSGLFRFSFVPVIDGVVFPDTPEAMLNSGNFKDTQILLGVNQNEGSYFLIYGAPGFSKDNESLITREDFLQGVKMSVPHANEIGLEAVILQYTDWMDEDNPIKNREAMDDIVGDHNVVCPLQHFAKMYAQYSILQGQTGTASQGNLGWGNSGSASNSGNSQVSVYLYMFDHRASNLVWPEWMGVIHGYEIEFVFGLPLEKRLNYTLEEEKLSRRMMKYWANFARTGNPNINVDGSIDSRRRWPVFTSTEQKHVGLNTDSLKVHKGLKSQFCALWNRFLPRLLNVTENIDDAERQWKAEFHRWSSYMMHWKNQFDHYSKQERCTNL", "assay": "Kinetic characterisation of AChE inhibition (Lineweaver-Burk)", "assay_type": "biochemical", "conditions": "Lineweaver-Burk plot, Figure 1A", "protocol": "as §1"}, "[1]": {"assay": "In vitro antioxidant activity (DPPH radical scavenging)", "conditions": "DPPH free radical scavenging, 30 min at 37 °C, mean ± SD (n = 3)", "protocol": "The assay provides an assessment of the antioxidant activity due to free radical scavenging by measuring hydrogen atom (or one electron) donating activity. DPPH is a purple stable free radical that is reduced to a yellow-coloured diphenylpicryl hydrazine by an antioxidant. The spectrophotometric assay was carried out as described by the literature method with a slight modification. 100 μL of a sample solution was added to 100 μL of DPPH solution. Following 30 min of incubation at 37 °C and protection from light, the absorbance at 517 nm was determined using a microplate reader. Each group was measured three times in parallel to average. IC50 values were calculated. The percentage of DPPH radical scavenging rate of the target compound is calculated as follows: DPPH free radical scavenging effect (%)=[A0 – (A1−A2)]/A0×100% where A0 is the absorbance of blank group; A1 is the absorbance of sample group; A2 is the absorbance of sample blank group."}}, "data": [{"molecule": "COc1cc2c(cc1O)C(c1ccc(OC)c(OC)c1)C(=O)O2", "note": "(stereo not shown) [Compound 13, 5-Hydroxy-6-methoxy-3–(3′,4′-dimethoxyphenyl)-benzofuranone]", "values": [{"measurement": "IC50", "setting": "MAO-B", "value": "11.2 ± 0.72", "unit": "µM"}, {"measurement": "inhibition mode against BuChE", "setting": "BuChE", "value": "reversible inhibition"}, {"measurement": "inhibition mode against AChE", "setting": "AChE", "value": "reversible inhibition"}, {"measurement": "IC50", "setting": "[1]", "value": "5.33 ± 0.08", "unit": "µM"}]}]}
